Measurements: ChEMBL document CHEMBL1147815, “Stilbene-based anticancer agents: resveratrol analogues active toward HL60 leukemic cells with a non-specific phase mechanism” (Bioorg Med Chem Lett, 2006)
Activity calls are given as the source filed them. The rule behind the calls is not given here.

Experiments:
Format in all cases: functional, cell-based
HL-60 [1] = test: Antiproliferative activity against human HL60 cells
HL-60 [2] = test: Apoptosis inducing activity in human HL60 cells
HL-60 [3] = test: Induction of partial block of S phase in HL60 cells; conditions: Homo sapiens
HL-60 [4] = test: Induction of apoptotic sub-G0/G1 phase in HL60 cells; conditions: Homo sapiens
HL-60 [5] = test: Decrease of HL60 cells at G2/M phase; conditions: Homo sapiens
HL-60 [6] = test: Decrease of HL60 cells at S phase; conditions: Homo sapiens
HL-60 [7] = test: Decrease of HL60 cells at G0/G1 phase; conditions: Homo sapiens

SMILES	IC50 (HL-60 [1]) [µM]	AC50 (HL-60 [2]) [µM]	Activity (HL-60 [3])	Activity (HL-60 [4])	Activity (HL-60 [5])	Activity (HL-60 [6])	Activity (HL-60 [7])
COc1cccc(/C=C/c2cc(OC)cc(OC)c2)c1	37	70					
COc1cc(/C=C\c2cc(OC)c(OC)c(OC)c2)cc(OC)c1	1.8	2.6	Active	Active			
COc1ccc(/C=C\c2cc(OC)cc(OC)c2)cc1 [8Z-3,4',5-TRIMETHOXYSTILBENE]	0.15	0.24		Active	Active	Active	Active
COc1cc(/C=C/c2cc(OC)c(OC)c(OC)c2)cc(OC)c1	22	42					
Cc1ccc(/C=C/c2ccc(O)cc2)cc1C	3.5	6					
COc1ccc(/C=C/c2cc(OC)cc(OC)c2)cc1			Active	Active			
O=[N+]([O-])c1ccc(/C=C/c2ccc(O)cc2)cc1	2.5	4.8	Active	Active			
COc1cccc(/C=C\c2cc(OC)cc(OC)c2)c1	2.8	5.4					
